Experimental data reported in PubChem BioAssay AID1963834 (Molecular Pharmacology Branch, DTP, NCI, 2024).

System: 873145-292-R-J1-PDC complex spheroid viability
Test: Anticancer human tumor 873145-292-R-J1-PDC patient-derived renal clear cell carcinoma cell line growth inhibition [POLQ]
Details: for IC50: curve of first compound; for viability, T/C: stronger effect = lower value
Outline: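 Complex spheroid viability model combining PDC tumour cells with endothelial (HUVEC) and MSC stromal cells. Novobiocin, ART-558 or RP6685 were tested singly and in combination with standard and investigational anticancer drugs. Each was titrated in half-log steps from near clinical Cmax, or from 10 microM where Cmax was unknown.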

[1] = second compound 0.0316 µM, first compound 0.0316 µM
[2] = second compound 0.0316 µM, first compound 0.1 µM
[3] = second compound 0.0316 µM, first compound 0.316 µM
[4] = second compound 0.0316 µM, first compound 1 µM
[5] = second compound 0.1 µM, first compound 0.0316 µM
[6] = second compound 0.1 µM, first compound 0.1 µM
[7] = second compound 0.1 µM, first compound 0.316 µM
[8] = second compound 0.1 µM, first compound 1 µM
[9] = second compound 0.316 µM, first compound 0.0316 µM
[10] = second compound 0.316 µM, first compound 0.1 µM
[11] = second compound 0.316 µM, first compound 0.316 µM
[12] = second compound 0.316 µM, first compound 1 µM
[13] = second compound 1 µM, first compound 0.0316 µM
[14] = second compound 1 µM, first compound 0.1 µM
[15] = second compound 1 µM, first compound 0.316 µM
[16] = second compound 1 µM, first compound 1 µM
[17] = second compound 3.16 µM, first compound 0.0316 µM
[18] = second compound 3.16 µM, first compound 0.1 µM
[19] = second compound 3.16 µM, first compound 0.316 µM
[20] = second compound 3.16 µM, first compound 1 µM
[21] = second compound 10 µM, first compound 0.0316 µM
[22] = second compound 10 µM, first compound 0.1 µM
[23] = second compound 10 µM, first compound 0.316 µM
[24] = second compound 10 µM, first compound 1 µM
[25] = second compound 0.0316 µM, first compound 3.16 µM
[26] = second compound 0.0316 µM, first compound 10 µM
[27] = second compound 0.1 µM, first compound 3.16 µM
[28] = second compound 0.1 µM, first compound 10 µM
[29] = second compound 0.316 µM, first compound 3.16 µM
[30] = second compound 0.316 µM, first compound 10 µM
[31] = second compound 1 µM, first compound 3.16 µM
[32] = second compound 1 µM, first compound 10 µM
[33] = second compound 3.16 µM, first compound 3.16 µM
[34] = second compound 3.16 µM, first compound 10 µM
[35] = second compound 10 µM, first compound 3.16 µM
[36] = second compound 10 µM, first compound 10 µM
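Further: spheroids exposed to compounds for 7 days before viability readout.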
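Wherever viability, T/C is given: luminescence signal used as surrogate for viable cell content; 100% = DMSO vehicle control viability.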

Structure (SMILES): C=CCn1c(=O)c2cnc(Nc3ccc(N4CCN(C)CC4)cc3)nc2n1-c1cccc(C(C)(C)O)n1 + Nc1ccc(C#CCN(C(=O)Cc2ncc(C(F)(F)F)cc2C(F)(F)F)c2ccc(F)cc2)nn1
- IC50 (second compound 0.0316 µM): > 1 µM
- IC50 (second compound 0.1 µM): > 1 µM
- IC50 (second compound 0.316 µM): > 1 µM
- IC50 (second compound 1 µM): > 1 µM
- IC50 (second compound 3.16 µM): > 1 µM
- IC50 (second compound 10 µM): > 1 µM
- viability, T/C (second compound 0.0316 µM, first compound 0.00316 µM): 93.8%
- viability, T/C (second compound 0.0316 µM, first compound 0.01 µM): 110%
- viability, T/C [1]: 92.7%
- viability, T/C [2]: 86.6%
- viability, T/C [3]: 78.5%
- viability, T/C [4]: 77.3%
- viability, T/C (second compound 0.1 µM, first compound 0.00316 µM): 106%
- viability, T/C (second compound 0.1 µM, first compound 0.01 µM): 105%
- viability, T/C [5]: 86.4%
- viability, T/C [6]: 100%
- viability, T/C [7]: 89.2%
- viability, T/C [8]: 74.1%
- viability, T/C (second compound 0.316 µM, first compound 0.00316 µM): 91.8%
- viability, T/C (second compound 0.316 µM, first compound 0.01 µM): 99.1%
- viability, T/C [9]: 79.5%
- viability, T/C [10]: 86.4%
- viability, T/C [11]: 87.8%
- viability, T/C [12]: 72.9%
- viability, T/C (second compound 1 µM, first compound 0.00316 µM): 93.5%
- viability, T/C (second compound 1 µM, first compound 0.01 µM): 95.3%
- viability, T/C [13]: 94.1%
- viability, T/C [14]: 88.5%
- viability, T/C [15]: 90.6%
- viability, T/C [16]: 69.3%
- viability, T/C (second compound 3.16 µM, first compound 0.00316 µM): 105%
- viability, T/C (second compound 3.16 µM, first compound 0.01 µM): 103%
- viability, T/C [17]: 88.4%
- viability, T/C [18]: 90.2%
- viability, T/C [19]: 81.4%
- viability, T/C [20]: 79.8%
- viability, T/C (second compound 10 µM, first compound 0.00316 µM): 110%
- viability, T/C (second compound 10 µM, first compound 0.01 µM): 106%
- viability, T/C [21]: 108%
- viability, T/C [22]: 101%
- viability, T/C [23]: 77.9%
- viability, T/C [24]: 77.8%

Structure (SMILES): Nc1ccn(C2OC(CO)C(O)C2(F)F)c(=O)n1 (stereo not drawn) + Nc1ccc(C#CCN(C(=O)Cc2ncc(C(F)(F)F)cc2C(F)(F)F)c2ccc(F)cc2)nn1
- IC50 (second compound 0.0316 µM): > 10 µM
- IC50 (second compound 0.1 µM): > 10 µM
- IC50 (second compound 0.316 µM): 10 µM
- IC50 (second compound 1 µM): > 10 µM
- IC50 (second compound 3.16 µM): > 10 µM
- IC50 (second compound 10 µM): > 10 µM
- viability, T/C [1]: 70.6%
- viability, T/C [2]: 72.4%
- viability, T/C [3]: 61%
- viability, T/C [4]: 56.2%
- viability, T/C [25]: 58.5%
- viability, T/C [26]: 55.8%
- viability, T/C [5]: 71.6%
- viability, T/C [6]: 70.2%
- viability, T/C [7]: 57.3%
- viability, T/C [8]: 54.5%
- viability, T/C [27]: 49.5%
- viability, T/C [28]: 51.7%
- viability, T/C [9]: 73.8%
- viability, T/C [10]: 80.5%
- viability, T/C [11]: 52.6%
- viability, T/C [12]: 54.8%
- viability, T/C [29]: 59.1%
- viability, T/C [30]: 53.4%
- viability, T/C [13]: 67.7%
- viability, T/C [14]: 65.8%
- viability, T/C [15]: 61.8%
- viability, T/C [16]: 70.3%
- viability, T/C [31]: 55.6%
- viability, T/C [32]: 51.7%
- viability, T/C [17]: 72.9%
- viability, T/C [18]: 66.6%
- viability, T/C [19]: 73.7%
- viability, T/C [20]: 64.2%
- viability, T/C [33]: 54.5%
- viability, T/C [34]: 63%
- viability, T/C [21]: 82.7%
- viability, T/C [22]: 67.6%
- viability, T/C [23]: 61.4%
- viability, T/C [24]: 62.1%
- viability, T/C [35]: 59.4%
- viability, T/C [36]: 67.2%

Structure (SMILES): O=C(c1cc(Cc2n[nH]c(=O)c3ccccc23)ccc1F)N1CCN(C(=O)C2CC2)CC1 + Nc1ccc(C#CCN(C(=O)Cc2ncc(C(F)(F)F)cc2C(F)(F)F)c2ccc(F)cc2)nn1
- IC50 (second compound 0.0316 µM): > 10 µM
- IC50 (second compound 0.1 µM): > 10 µM
- IC50 (second compound 0.316 µM): > 10 µM
- IC50 (second compound 1 µM): > 10 µM
- IC50 (second compound 3.16 µM): > 10 µM
- IC50 (second compound 10 µM): > 10 µM
- viability, T/C [1]: 98.5%
- viability, T/C [2]: 110%
- viability, T/C [3]: 101%
- viability, T/C [4]: 106%
- viability, T/C [25]: 107%
- viability, T/C [26]: 108%
- viability, T/C [5]: 112%
- viability, T/C [6]: 118%
- viability, T/C [7]: 103%
- viability, T/C [8]: 102%
- viability, T/C [27]: 98.1%
- viability, T/C [28]: 96.2%
- viability, T/C [9]: 96.4%
- viability, T/C [10]: 114%
- viability, T/C [11]: 114%
- viability, T/C [12]: 105%
- viability, T/C [29]: 93.8%
- viability, T/C [30]: 103%
- viability, T/C [13]: 98.4%
- viability, T/C [14]: 105%
- viability, T/C [15]: 114%
- viability, T/C [16]: 117%
- viability, T/C [31]: 104%
- viability, T/C [32]: 88.6%
- viability, T/C [17]: 104%
- viability, T/C [18]: 114%
- viability, T/C [19]: 115%
- viability, T/C [20]: 110%
- viability, T/C [33]: 96.2%
- viability, T/C [34]: 104%
- viability, T/C [21]: 101%
- viability, T/C [22]: 105%
- viability, T/C [23]: 106%
- viability, T/C [24]: 109%
- viability, T/C [35]: 100%
- viability, T/C [36]: 101%

Structure (SMILES): O=c1[nH]cc(F)c(=O)[nH]1 + Nc1ccc(C#CCN(C(=O)Cc2ncc(C(F)(F)F)cc2C(F)(F)F)c2ccc(F)cc2)nn1
- IC50 (second compound 0.0316 µM): > 10 µM
- IC50 (second compound 0.1 µM): > 10 µM
- IC50 (second compound 0.316 µM): > 10 µM
- IC50 (second compound 1 µM): > 10 µM
- IC50 (second compound 3.16 µM): > 10 µM
- IC50 (second compound 10 µM): > 10 µM
- viability, T/C [1]: 109%
- viability, T/C [2]: 103%
- viability, T/C [3]: 101%
- viability, T/C [4]: 91.1%
- viability, T/C [25]: 98.5%
- viability, T/C [26]: 103%
- viability, T/C [5]: 104%
- viability, T/C [6]: 117%
- viability, T/C [7]: 101%
- viability, T/C [8]: 105%
- viability, T/C [27]: 98.3%
- viability, T/C [28]: 93.7%
- viability, T/C [9]: 105%
- viability, T/C [10]: 105%
- viability, T/C [11]: 87.6%
- viability, T/C [12]: 98%
- viability, T/C [29]: 103%
- viability, T/C [30]: 97.7%
- viability, T/C [13]: 113%
- viability, T/C [14]: 107%
- viability, T/C [15]: 102%
- viability, T/C [16]: 90.1%
- viability, T/C [31]: 114%
- viability, T/C [32]: 95.2%
- viability, T/C [17]: 118%
- viability, T/C [18]: 101%
- viability, T/C [19]: 112%
- viability, T/C [20]: 105%
- viability, T/C [33]: 105%
- viability, T/C [34]: 105%
- viability, T/C [21]: 107%
- viability, T/C [22]: 125%
- viability, T/C [23]: 132%
- viability, T/C [24]: 116%
- viability, T/C [35]: 105%
- viability, T/C [36]: 112%
